Laboratory results taken from PubChem BioAssay AID1963825 (Molecular Pharmacology Branch, DTP, NCI, 2024).
pIC50: −log10 of the molar value.

Assay: Anticancer human tumor 997537-175-T-J1-PDC patient-derived colon adenocarcinoma cell line growth inhibition [POLQ]
Conditions: 997537-175-T-J1-PDC complex spheroid viability, combination with POLQ inhibitors; for pIC50: curve of first compound; for viability, T/C: stronger effect = lower value
Experimental: Multicellular complex tumor spheroid response to Polymerase (POL) inhibitors (novobiocin, ART-558, RP6685) in combination with a variety of drugs and investigational agents in selected tumor cell lines
The POL inhibitors (novobiocin, ART-558, and RP6685) were evaluated both individually and in combination with standard of care and investigational anticancer small molecules within a complex spheroid model of solid tumors. . Complex spheroids include a stromal component modeled by human endothelial cells (HUVEC) and fibroblasts modeled by human mesenchymal stem cells (MSCs). The concentration ranges selected for each drug and investigational agent were based upon clinically achievable concentrations if the clinical Cmax of the agent was known.
Compounds. The drugs and investigational agents: novobiocin (NSC847541), ART-558 (NSC835418), RP-6685 (NSC848927), peposertib (NSC802822), ceralasertib (NSC780249), elimusertib (NSC800525), camonsertib (NSC841442), AZD-1390 (NSC803789), olaparib (NSC753686), talazoparib (NSC767125), rucaparib (NSC756644), sotorasib (NSC818433), MRTX-1133 (NSC836407), SN-38 (NSC673596), topotecan (NSC609699), epotoside (NSC141540), doxorubicin (NSC123127), gemcitabine (NSC613327), 5-fluorouracil (NSC19893), paclitaxel (NSC125973), vemurafenib (NSC761431), MSA-2 (NSC828583), SN-011 (NSC837082), adavosertib (NSC754352), prexasertib (NSC758257), carboplatin (NSC241240) and oxaliplatin (NSC266046), were obtained from the National Cancer Institute (NCI) Developmental Therapeutics Program Chemical Repository (21). The FDA-approved anticancer drug set is available from the Developmental Therapeutics Program at https://dtp.cancer.gov/organization/dscb/obtaining/. […] The stock solutions were prepared in dimethyl sulfoxide (DMSO, Sigma-Aldrich, St. Louis, MO, cat. D2650), except for the platinum compounds which were prepared in saline (Quality Biological, Gaithersburg, MD, cat. 114-055-101), at 800-fold the tested concentration and stored at -70 degrees C prior to their use. All drugs and investigational agents were tested over a range starting from a high concentration at or near the clinical Cmax and decreasing in half-log increments. If the clinical Cmax for an agent had not been determined, the highest concentration tested was 10 microM, except for SN-38, which was tested at a high concentration of 1 microM.
Cell Culture. All cells were maintained in an incubator at 37 degrees C and 5% CO2 with 95% humidity. The PDC lines were cultured according to standard operating procedures established by the NCI PDMR (https://pdmr.cancer.gov). Table 3 of the manuscript, lists the cell lines along with the number of the three cell types plated to form the mct-spheroids and media for tumor cell growth. After thawing, all PDC lines, except 997537-175-T-J1-PDC and 415267-285-R-J2-PDC, were cultured in Matrigel-coated flasks prepared with a working solution of 1X Ham's F-12 nutrient mix, without supplementation (Thermo Fisher Scientific, cat. 11765054), 100 U/mL penicillin-streptomycin (Thermo Fisher Scientific, cat. 15140122), and 2.5% Matrigel (Corning Inc., Corning, NY, cat. 354248) for the first three passages. The two PDC lines 997537-175-T-J1-PDC and 415267-285-R-J2-PDC were cultured on uncoated flasks. The 857933-349-R-J2-PDC line was cultured in 6C/Colon 1B media containing advanced DMEM/F-12 (Thermo Fisher Scientific, cat. 12634028), 10 mM HEPES (Thermo Fisher Scientific, cat. 15630080), 1X GlutaMAX supplement (Thermo Fisher Scientific, cat. 35050061), 0.1 mg/mL primocin (InvivoGen, San Diego, CA, cat. ant-pm-2), 10% defined fetal bovine serum, heat inactivated (HyClone Laboratories Inc., Logan, UT, cat. SH30070.03HI), 50% L-WRN conditioned media (ATCC, cat. CRL-3276), 1.25 mM N-Acetyl-L-cysteine (Sigma-Aldrich, cat. A9165), 10 mM nicotinamide (Sigma-Aldrich, cat. N0636), 1X B-27 supplement (Thermo Fisher Scientific, cat. 17504044), 1X N-2 supplement (Thermo Fisher Scientific, cat. […]
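Note: luminescence signal used as a surrogate for viable cells; spheroids exposed to drugs for seven days before readout.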

## Cn1ncnc1[C@H]1c2n[nH]c(=O)c3cc(F)cc(c23)N[C@@H]1c1ccc(F)cc1 + COC1C(OC(N)=O)C(O)C(Oc2ccc3c(O)c(NC(=O)c4ccc(O)c(CC=C(C)C)c4)c(=O)oc3c2C)OC1(C)C
Second compound 0.0316 µM
  pIC50: < 7.00
Second compound 0.1 µM
  pIC50: < 7.00
Second compound 0.316 µM
  pIC50: < 7.00
Second compound 1 µM
  pIC50: < 7.00
Second compound 3.16 µM
  pIC50: < 7.00
Second compound 10 µM
  pIC50: < 7.00
Second compound 0.0316 µM, first compound 0.000316 µM
  viability, T/C: 92.9%
Second compound 0.0316 µM, first compound 0.001 µM
  viability, T/C: 99.7%
Second compound 0.0316 µM, first compound 0.00316 µM
  viability, T/C: 108%
Second compound 0.0316 µM, first compound 0.01 µM
  viability, T/C: 97.1%
Second compound 0.0316 µM, first compound 0.0316 µM
  viability, T/C: 90.9%
Second compound 0.0316 µM, first compound 0.1 µM
  viability, T/C: 82.8%
Second compound 0.1 µM, first compound 0.000316 µM
  viability, T/C: 102%
Second compound 0.1 µM, first compound 0.001 µM
  viability, T/C: 96.8%
Second compound 0.1 µM, first compound 0.00316 µM
  viability, T/C: 91.8%
Second compound 0.1 µM, first compound 0.01 µM
  viability, T/C: 91.9%
Second compound 0.1 µM, first compound 0.0316 µM
  viability, T/C: 97.9%
Second compound 0.1 µM, first compound 0.1 µM
  viability, T/C: 91.5%
Second compound 0.316 µM, first compound 0.000316 µM
  viability, T/C: 102%
Second compound 0.316 µM, first compound 0.001 µM
  viability, T/C: 95.9%
Second compound 0.316 µM, first compound 0.00316 µM
  viability, T/C: 98.3%
Second compound 0.316 µM, first compound 0.01 µM
  viability, T/C: 91%
Second compound 0.316 µM, first compound 0.0316 µM
  viability, T/C: 91.7%
Second compound 0.316 µM, first compound 0.1 µM
  viability, T/C: 92.8%
Second compound 1 µM, first compound 0.000316 µM
  viability, T/C: 104%
Second compound 1 µM, first compound 0.001 µM
  viability, T/C: 97.1%
Second compound 1 µM, first compound 0.00316 µM
  viability, T/C: 94.9%
Second compound 1 µM, first compound 0.01 µM
  viability, T/C: 101%
Second compound 1 µM, first compound 0.0316 µM
  viability, T/C: 104%
Second compound 1 µM, first compound 0.1 µM
  viability, T/C: 102%
Second compound 3.16 µM, first compound 0.000316 µM
  viability, T/C: 97%
Second compound 3.16 µM, first compound 0.001 µM
  viability, T/C: 104%
Second compound 3.16 µM, first compound 0.00316 µM
  viability, T/C: 94.8%
Second compound 3.16 µM, first compound 0.01 µM
  viability, T/C: 96.4%
Second compound 3.16 µM, first compound 0.0316 µM
  viability, T/C: 105%
Second compound 3.16 µM, first compound 0.1 µM
  viability, T/C: 83.3%
Second compound 10 µM, first compound 0.000316 µM
  viability, T/C: 94.7%
Second compound 10 µM, first compound 0.001 µM
  viability, T/C: 94.8%
Second compound 10 µM, first compound 0.00316 µM
  viability, T/C: 89.1%
Second compound 10 µM, first compound 0.01 µM
  viability, T/C: 110%
Second compound 10 µM, first compound 0.0316 µM
  viability, T/C: 98.3%
Second compound 10 µM, first compound 0.1 µM
  viability, T/C: 102%
